Measured values taken from patent publication US20070249673A1, “Method for administering tolperisone” (priority 2006, published 2007).
Like-named read-outs stand apart in the source and are kept apart here.

What was measured:
[1] = human, in vivo
Experimental: (§1) Dosing Regimen: Subjects in each cohort received tolperisone according to the following regimen.
(§2) Blood samples for the measurement of the plasma concentrations of tolperisone and metabolites M1 (4-hydroxymethyltolperisone) and M4 (4-carboxy-tolperisone) were collected at the times shown in Table 8.
(§3) Bioanalytical: Plasma concentrations of tolperisone and metabolites M1 and M4 were measured using a validated LC/MS/MS assay by Pharm-analyt Laboratory, Baden Austria. The limits of quantitation (LOQ) for tolperisone, Mi, and M4 in plasma were 0.2 ng/ML, and 0.01 μg/mL, respectively.
(§4) Pharmacokinetic Analyses: Pharmacokinetic parameters for tolperisone, M1, and M4 were calculated using non-compartmental analysis. Only plasma concentrations greater than or equal to the LOQ for the respective assay were used in the pharmacokinetic analyses. Actual blood sampling times were used in all pharmacokinetic analyses. […] All pharmacokinetic calculations were done using SAS® for Windows® Version 9.1.3.
(§5) The maximum plasma concentration (Cmax) and time to Cmax (Tmax) were taken directly from the data. The elimination rate constant, λz, was calculated as the negative of the slope of the terminal log-linear segment of the plasma concentration-time curve. The range of data to be used for each subject and treatment was determined by visual inspection of a semi-logarithmic plot of concentration versus time. Elimination half-life (t½) was calculated according to the following equation: [formula] Area under the curve to the final sample with a concentration greater than or equal to the LOQ [(AUC(0-t)] was calculated using the linear trapezoidal method and extrapolated to infinity [AUC(inf)] using: [formula] where Ctf is the final concentration≧LOQ.
(§6) The maximum plasma concentration (Cmax) and time to Cmax (Tmax) were taken directly from the data.
(§7) The maximum plasma concentration (Cmax) and time to Cmax (Tmax) were taken directly from the data. The elimination rate constant, λz, and half-life, t½, were calculated as described for the 0800 dose on Day 1 (above). Areas under the curve to the final sample with a concentration greater than or equal to the LOQ [(AUC(O-t)] and over the 6-hour dosing interval [AUC(0-6)] were calculated using the linear trapezoidal method.

[2] = clinical; conditions: human, in vivo
Experimental: as §1, §2, §3, §4, §5, §6, §7

[3] = human, in vivo; remark: listed apart in the source
Experimental: (§8) The study was designed as an open-label, single dose, 4-way crossover study in 24 healthy male subjects. Randomization was performed according to the Latin Square Block design. Six subjects each were distributed to the four treatment arms. Each subject completed the study having received a single dose of 150 mg, 300 mg, and 450 mg of tolperisone once daily in a fasted state, and 150 mg of tolperisone with food. The wash-out period between study periods was at least seven days.
(§9) 24 healthy male subjects were planned to participate in the study. […] The study group was composed of healthy male Caucasians, aged between 18-50 years, with a body mass index of 19-28 kg/m^2.
(§10) Tolperisone, 2-methyl-1-(4-methylphenyl)-3-(1-piperidinyl)-1-propanone, was supplied in coated tablets of 150 mg (“SPH-3047”, Sanochemia Pharmazeutica AG).
(§11) The dosage regimen was a four-way crossover. Within four treatment sequences, each subject received each of the following doses once.
(§12) Procedures from Day 1 until Day 3 were as follows (time points are detailed in the tabular schedule of trial procedures): • (i) An indwelling intravenous catheter was placed for blood sampling (without using heparin). • (ii) The study drug was administered (either 150, 300, or 450 mg of tolperisone) with 200 ml non-carbonated water in a standing position in a fasting state (intake of a standard breakfast not earlier than 90 minutes after dosing). For the food effect investigation, subjects received 150 mg tolperisone after food intake. • (iii) 12-lead ECG was taken both pre-dose, and at about 2 h post-dose (+15 min); ECG recordings were performed approximately 15 minutes before blood sampling. […] 64 blood samples for the determination of tolperisone and its main metabolite were drawn at the following times: pre-dose and 0.25, 0.5, 0.75, 1.0, 1.25, 1.5, 2, 3, 4, 8, 12, 24, 36, 48, and 72 hours post-administration (16 samples at each treatment).
(§13) On Day 1, meals were identical for all four study periods, with the exception of the “fed” study period during which a standardized breakfast was served 30 min prior to dosing.
(§14) In the non-fasted study period subjects received a standardized breakfast 30 min prior to dosing. The breakfast was a high fat breakfast according to FDA recommendations and was composed of the following food items: 2 slices of toasted white bread with butter, 2 eggs fried in butter, 2 slices of bacon, 2 ounces (1 oz=28.35 g) of “hash-browns” (fried, shredded potatoes), and 8 ounces of whole milk.
(§15) Assessment of Pharmacokinetics: For pharmacokinetic analysis, 7 ml of blood were collected by using Sarstedt monovettes (Sarstedt Ltd., Leicester, UK) or Vacutainers (Becton Dickenson).
(§16) The samples were immediately stored in ice water and centrifuged within 30 min following the collection of blood (1500×g, 10 minutes) at +4° C. temperature. The plasma from each sample was divided into two equal aliquots (approx. 2×1.5 ml), which were each transferred to a polypropylene tube, and identified by a coded label. The plasma samples were then stored in a freezer at a temperature of at least −70° C. until time of analysis.

[4] = Pharmacokinetic profile of tolperisone after single and multi-dosing (150 mg regimen over 7 days) in healthy subjects under fasted and fed conditions; conditions: for AUC(0-t) / AUC(inf) / Cmax / t½ / λz / AUC(0-6): mean ± SD; for Tmax: median
Experimental: as §1, §2, §3, §4, §5, §6, §7

[5] = Food effect of tolperisone: open-label, single dose, 4-way crossover pharmacokinetic study in healthy male volunteers; conditions: for AUC0-oo / AUC0-tlast / Cmax / Tmax / t1/2 / λz: 150 mg single oral dose, plasma, mean ± SD
Experimental: as §8, §9, §10, §11, §12, §13, §14, §15, §16

[6] = Day 1 - 0800 Dose, Fasted, Females
[7] = Day 1 - 0800 Dose, Fasted, Males
[8] = Day 1 - 0800 Dose, Fasted, both sexes
[9] = Day 1 - 0800 Dose, Fed, Females
[10] = Day 1 - 0800 Dose, Fed, both sexes
[11] = Day 1, fed vs fasted, both sexes
[12] = Day 2 - 2200 Dose, Fasted, Females
[13] = Day 2 - 2200 Dose, Fasted, Males
[14] = Day 2 - 2200 Dose, Fasted, both sexes
[15] = Day 2 - 2200 Dose, Fed, Females
[16] = Day 2 - 2200 Dose, Fed, both sexes
[17] = Day 7 - 0800 Dose, Fasted, Females
[18] = Day 7 - 0800 Dose, Fasted, Males
[19] = Day 7 - 0800 Dose, Fasted, both sexes
[20] = Day 7 - 0800 Dose, Fed, Females
[21] = Day 7 - 0800 Dose, Fed, both sexes
[22] = Day 7 - 2200 Dose, Fasted, Females
[23] = Day 7 - 2200 Dose, Fasted, Males
[24] = Day 7 - 2200 Dose, Fasted, both sexes
[25] = Day 7 - 2200 Dose, Fed, Females
[26] = Day 7 - 2200 Dose, Fed, both sexes

Cc1ccc(C(=O)C(C)CN2CCCCC2)cc1 (stereo not shown) [Tolperisone, 2-methyl-1-(4-methylphenyl)-3-(1-piperidinyl)-1-propanone]
mean AUC(0-6) under fasted conditions higher than fed ([1]; both): 127%
mean Cmax under fasted conditions higher than fed ([1]; both): 213%
t½ ([1]; both): 1.59 ± 0.63 (10) h
t½ ([1]; female): 1.53 ± 0.08 (3) h
t½ ([1]; male): 1.62 ± 0.77 (7) h
AUC(0-t) ([2]; both, AUC (0-6)): 196 ± 129 ng·h/mL
AUC(0-t) ([2]; both, AUC (0-t)): 117 ± 93 ng·h/mL
AUC(0-inf) ([2]; both, AUC (inf)): 122 ± 97.5 ng·h/mL
Tmax ([2]; both): 0.88 h
half-life ([2]; both, mean elimination half-life): ~1.3 h
half-life ([2]; both, t½): 1.22 ± 0.24 h
AUC(0-t) ([2]; female, AUC(0-6)): 276 ± 151 ng·h/mL
AUC(0-t) ([2]; female, AUC(0-t)): 173 ± 152 ng·h/mL
AUC(0-inf) ([2]; female, AUC(inf)): 181 ± 161 ng·h/mL
Tmax ([2]; female): 1 h
half-life ([2]; female, t½): 1.17 ± 0.25 h
AUC(0-t) ([2]; male, AUC(0-6)): 162 ± 113 ng·h/mL
AUC(0-t) ([2]; male, AUC(0-t)): 93.1 ± 55.2 ng·h/mL
AUC(0-inf) ([2]; male, AUC(inf)): 96.3 ± 55.7 ng·h/mL
Tmax ([2]; male): 0.75 h
half-life ([2]; male, t½): 1.24 ± 0.25 h
AUC0-tlast ([3]; po, 150 mg): 54.0 ± 53.2 ng·h/mL
AUC0-oo, geometric mean for the ratio 150 mg fed/150 mg fasted, point estimate ([3]; male): 1.87
AUC0-tlast, geometric mean for the ratio 150 mg fed/150 mg fasted, point estimate ([3]; male): 1.92
Cmax, geometric mean for the ratio 150 mg fed/150 mg fasted, point estimate ([3]; male): 1.18
AUC0-oo ([3]; male, po, 150 mg): 55.4 ± 53.4 ng·h/mL
Cmax ([3]; male, po, 150 mg): 36.1 ± 38.4 ng/mL
Tmax ([3]; male, po, 150 mg): 0.66 h
t1/2 ([3]; male, po, 150 mg): 2.06 ± 0.43 h

CC(CN1CCCCC1)C(=O)c1ccc(CO)cc1 (stereo not shown) [4-HM-Tolperisone, 4-hydroxymethyl-tolperisone]
AUC(0-t) [4, 6]: 3.98 ± 2.48 (3) h · ng/mL
AUC(inf) [4, 6]: 4.10 ± 2.55 (3) h · ng/mL
Cmax [4, 6]: 2.06 ± 1.44 (3) ng/mL
t½ [4, 6]: 1.03 ± 0.090 (3) h
λz [4, 6]: 0.6787 ± 0.0627 (3) h^−1
Tmax [4, 6]: 1.00 (3) h
AUC(0-t) [4, 7]: 3.49 ± 1.47 (7) h · ng/mL
AUC(inf) [4, 7]: 3.60 ± 1.48 (7) h · ng/mL
Cmax [4, 7]: 2.30 ± 1.50 (7) ng/mL
t½ [4, 7]: 1.16 ± 0.18 (7) h
λz [4, 7]: 0.6081 ± 0.0792 (7) h^−1
Tmax [4, 7]: 0.75 (7) h
AUC(0-t) [4, 8]: 3.63 ± 1.69 (10) h · ng/mL
AUC(inf) [4, 8]: 3.75 ± 1.72 (10) h · ng/mL
Cmax [4, 8]: 2.22 ± 1.40 (10) ng/mL
t½ [4, 8]: 1.12 ± 0.17 (10) h
λz [4, 8]: 0.6293 ± 0.0788 (10) h^−1
Tmax [4, 8]: 0.88 (10) h
AUC(0-t) [4, 9]: 8.23 ± 5.46 (4) h · ng/mL
AUC(inf) [4, 9]: 8.64 ± 5.79 (4) h · ng/mL
Cmax [4, 9]: 3.29 ± 2.36 (4) ng/mL
t½ [4, 9]: 1.04 ± 0.12 (4) h
λz [4, 9]: 0.6700 ± 0.0749 (4) h^−1
Tmax [4, 9]: 2.00 (4) h
AUC(0-t) ([4]; Day 1 - 0800 Dose, Fed, Males): 4.22 ± 1.08 (6) h · ng/mL
AUC(inf) ([4]; Day 1 - 0800 Dose, Fed, Males): 4.31 ± 1.12 (6) h · ng/mL
Cmax ([4]; Day 1 - 0800 Dose, Fed, Males): 3.07 ± 0.68 (6) ng/mL
t½ ([4]; Day 1 - 0800 Dose, Fed, Males): 1.03 ± 0.09 (6) h
λz ([4]; Day 1 - 0800 Dose, Fed, Males): 0.6791 ± 0.0554 (6) h^−1
Tmax ([4]; Day 1 - 0800 Dose, Fed, Males): 0.88 (6) h
AUC(0-t) [4, 10]: 5.82 ± 3.86 (10) h · ng/mL
AUC(inf) [4, 10]: 6.05 ± 4.11 (10) h · ng/mL
Cmax [4, 10]: 3.16 ± 1.46 (10) ng/mL
t½ [4, 10]: 1.03 ± 0.10 (10) h
λz [4, 10]: 0.6754 ± 0.0599 (10) h^−1
Tmax [4, 10]: 1.00 (10) h
increase in the mean value for AUC(inf) on administration with food [4, 11]: 61%
increase in the mean value for Cmax on administration with food [4, 11]: 42%
Cmax [4, 12]: 1.83 ± 0.70 (3) ng/mL
Tmax [4, 12]: 0.75 (3) h
Cmax [4, 13]: 1.08 ± 0.68 (7) ng/mL
Tmax [4, 13]: 1.50 (7) h
Cmax [4, 14]: 1.30 ± 0.74 (10) ng/mL
Tmax [4, 14]: 1.25 (10) h
Cmax [4, 15]: 2.23 ± 1.99 (4) ng/mL
Tmax [4, 15]: 1.25 (4) h
Cmax ([4]; Day 2 - 2200 Dose, Fed, Males): 1.24 ± 0.60 (6) ng/mL
Tmax ([4]; Day 2 - 2200 Dose, Fed, Males): 1.00 (6) h
Cmax [4, 16]: 1.64 ± 1.33 (10) ng/mL
Tmax [4, 16]: 1.00 (10) h
mean AUC(0-6) under fed conditions higher than fasted ([4]; Day 7, 0800 dose, both sexes): 12%
mean Cmax under fed conditions lower than fasted ([4]; Day 7, 0800 dose, both sexes): 12%
AUC(0-6) [4, 17]: 5.78 ± 2.18 (3) h · ng/mL
Cmax [4, 17]: 3.79 ± 1.46 (3) ng/mL
t½ [4, 17]: 1.04 ± 0.115 (3) h
λz [4, 17]: 0.6728 ± 0.0705 (3) h^−1
Tmax [4, 17]: 0.75 (3) h
AUC(0-6) [4, 18]: 4.13 ± 2.37 (7) h · ng/mL
Cmax [4, 18]: 2.42 ± 1.62 (7) ng/mL
t½ [4, 18]: 1.23 ± 0.22 (7) h
λz [4, 18]: 0.5766 ± 0.0978 (7) h^−1
Tmax [4, 18]: 0.75 (7) h
AUC(0-6) [4, 19]: 4.63 ± 2.33 (10) h · ng/mL
Cmax [4, 19]: 2.83 ± 1.63 (10) ng/mL
t½ [4, 19]: 1.18 ± 0.21 (10) h
λz [4, 19]: 0.6054 ± 0.0982 (10) h^−1
Tmax [4, 19]: 0.75 (10) h
AUC(0-6) [4, 20]: 7.28 ± 4.43 (4) h · ng/mL
Cmax [4, 20]: 3.67 ± 1.97 (4) ng/mL
t½ [4, 20]: 1.08 ± 0.35 (2) h
λz [4, 20]: 0.6783 ± 0.2222 (2) h^−1
Tmax [4, 20]: 1.13 (4) h
AUC(0-6) ([4]; Day 7 - 0800 Dose, Fed, Males): 3.82 ± 1.23 (6) h · ng/mL
Cmax ([4]; Day 7 - 0800 Dose, Fed, Males): 1.70 ± 0.67 (6) ng/mL
t½ ([4]; Day 7 - 0800 Dose, Fed, Males): 1.08 ± 0.32 (6) h
λz ([4]; Day 7 - 0800 Dose, Fed, Males): 0.6791 ± 0.1380 (6) h^−1
Tmax ([4]; Day 7 - 0800 Dose, Fed, Males): 1.00 (6) h
AUC(0-6) [4, 21]: 5.20 ± 3.25 (10) h · ng/mL
Cmax [4, 21]: 2.49 ± 1.61 (10) ng/mL
t½ [4, 21]: 1.08 ± 0.31 (08) h
λz [4, 21]: 0.6789 ± 0.1437 (08) h^−1
Tmax [4, 21]: 1.00 (10) h
Cmax [4, 22]: 3.43 ± 2.15 (3) ng/mL
Tmax [4, 22]: 1.00 (3) h
Cmax [4, 23]: 1.78 ± 1.23 (7) ng/mL
Tmax [4, 23]: 1.03 (7) h
Cmax [4, 24]: 2.27 ± 1.64 (10) ng/mL
Tmax [4, 24]: 1.00 (10) h
Cmax [4, 25]: 2.35 ± 1.97 (4) ng/mL
Tmax [4, 25]: 1.25 (4) h
Cmax ([4]; Day 7 - 2200 Dose, Fed, Males): 2.09 ± 1.33 (6) ng/mL
Tmax ([4]; Day 7 - 2200 Dose, Fed, Males): 0.88 (6) h
Cmax [4, 26]: 2.20 ± 1.51 (10) ng/mL
Tmax [4, 26]: 1.00 (10) h
accumulation (increase in Cmax over the seven days of dosing) ([4]; seven days of dosing, up to 150 mg three times daily): little or no accumulation
mean elimination half-life ([4]; summary, not dependent on sex, food or duration of dosing): ~1.1 h
AUC0-oo ([5]; fasted state): 1.82 ± 1.09 ng·h/mL
AUC0-tlast ([5]; fasted state): 1.20 ± 1.01 ng·h/mL
Cmax ([5]; fasted state): 1.70 ± 1.66 ng/mL
Tmax ([5]; fasted state): 0.68 h
t1/2 ([5]; fasted state): 0.55 ± 0.21 h
λz ([5]; fasted state): 1.45 ± 0.51 h⁻¹
AUC0-oo ([5]; fed state (high fat breakfast)): 3.92 ± 2.37 ng·h/mL
AUC0-tlast ([5]; fed state (high fat breakfast)): 2.69 ± 2.18 ng·h/mL
Cmax ([5]; fed state (high fat breakfast)): 2.56 ± 3.04 ng/mL
Tmax ([5]; fed state (high fat breakfast)): 1.40 ± 0.77 h
t1/2 ([5]; fed state (high fat breakfast)): 1.19 ± 0.80 h
λz ([5]; fed state (high fat breakfast)): 0.95 ± 0.90 h⁻¹
Tmax ([5]; fed state (high fat breakfast), listed as 4-HM-tolperisone): 1.38 h
AUC0-oo, geometric mean for the ratio 150 mg fed/150 mg fasted, point estimate ([5]; Fed/fasted, 150 mg): 1.95
AUC0-tlast, geometric mean for the ratio 150 mg fed/150 mg fasted, point estimate ([5]; Fed/fasted, 150 mg): 2.27
Cmax, geometric mean for the ratio 150 mg fed/150 mg fasted, point estimate ([5]; Fed/fasted, 150 mg): 1.23
concentration in blood plasma eight hours after study drug administration ([5]; all studied doses (150, 300, and 450 mg)): below the limit of quantification
